Two molecules from patent US12557815B2, “Herbicide combinations comprising glufosinate and pyraflufen-ethyl” (BASF SE, priority 2020, dated 2026) can be followed below.

Structures are written as SMILES.

For this assay, the system named is Kochia (Bassia scoparia). Kind of assay: Greenhouse post emergence treatment, visual herbicidal control on a scale from 0 to 100. Type of assay: in vivo. An excerpt: Synergism can be described as an interaction where the combined effect of two or more compounds is greater than the sum of the individual effects of each of the compounds. The presence of a synergistic effect in terms of percent control, between two mixing partners (X and Y) can be calculated using the Colby equation (Colby, S. R., 1967, Calculating Synergistic and Antagonistic Responses in Herbicide Combinations, Weeds, 15, 21-22):
When the observed combined control effect is greater than the expected (calculated) combined control effect (E), then the combined effect is synergistic.
Weeds included Kochia (Bassia scoparia). However, the herbicidal effect afforded by the compounds, mixtures or compositions is not limited to these species. The analysis of synergism or antagonism between the mixtures or compositions was determined using Colby's equation.
Pots with 0.3 L of volume were filled with soil (SunGro Horticulture, Agawam, MA 01001) to grow one plant per pot in the greenhouse until the desired developmental stage. Environmental conditions inside the greenhouse were set up for 25° C., 75% relative humidity, and 12 h light day^−1 with natural sunlight or 500 […] PAR for cloudy days. […] During this time, the plants were tended, and their response to the individual treatments was evaluated. […]

As to `CCOC(=O)COc1cc(-c2nn(C)c(OC(F)F)c2Cl)c(F)cc1Cl` [Pyraflufen, pyraflufen-ethyl], for the setting “Pyraflufen 0.2 g ai/ha alone, visual scale 0 to 100, mean of three replications”, the “Herbicidal activity against Kochia (21 DAT) Found” value came out at 32.

Turning to `CP(=O)(O)CCC(N)C(=O)O` (racemic) [Glufosinate, (2RS)-2-amino-4-[hydroxy(methyl)phosphinoyl]butyric acid], the “Herbicidal activity against Kochia (21 DAT) Found” value (Glufosinate 420 g ai/ha alone, visual scale 0 to 100 (100 = complete destruction), mean of three replications) was determined as 25.
